Laboratory results as given in patent US11352329B2, “HIV protease inhibitors” (Gilead Sciences, Inc., priority 2017, dated 2022).

tested on: HIV-1 (IIIB) in MT-4 cells; assay: microbe, parasite or virus in culture; type: cell-based; conditions: Human immunodeficiency virus 1, IIIB, MT4, MT-4 cells

SMILES	EC50
CC(C)(C)C[C@]1(c2ccc(-c3cnn(C(F)F)c3)cc2)NC(=N)N([C@H](COC(=O)NC2CC2)c2ccc(Cl)c(-c3nccc(=O)[nH]3)c2)C1=O [Compound 17]	556 nM
CC(C)(C)C[C@]1(c2ccc(-c3cnn(C(F)F)c3)cc2)NC(=N)N([C@H](COC(=O)NC(C)(C)C(F)F)c2ccc(F)c(-c3ncnn3C(F)F)c2)C1=O [Compound 124]	65.3 nM
CC(C)(C)C[C@]1(c2ccc(-c3cnn(C4CC4)c3)cc2)NC(=N)N([C@H](COC(=O)NC2(C(F)(F)F)CC2)c2ccc(Cl)c(-c3ncnn3C(F)F)c2)C1=O [Compound 164]	16.5 nM
CC(C)(C)C[C@]1(c2ccc(-c3cn(C4CC4)nn3)cc2)NC(=N)N([C@H](COC(=O)NC2(C(F)(F)F)CC2)c2ccc(Cl)c(-n3ncnc3C(F)F)c2)C1=O [Compound 232]	18.2 nM
CC(C)(C)C[C@]1(c2ccc3ncc(Br)cc3c2)NC(=N)N([C@H](COC(=O)NC(C)(C)C(F)F)c2ccc(Cl)c(-n3ncnc3C(F)F)c2)C1=O [Compound 327]	30.7 nM
CC(C)(C#N)C[C@]1(c2ccc(-c3cnn(C(F)F)c3)cc2)NC(=N)N([C@H](COC(=O)NC2(C(F)(F)F)CC2)c2ccc(Cl)c(-n3ncnc3C(F)F)c2)C1=O [Compound 336]	74.7 nM
CC(C)(CC#N)C[C@]1(c2ccc(-c3cnn(C4CC4)n3)cc2)NC(=N)N([C@H](COC(=O)NC2(C(F)(F)F)CC2)c2ccc(Cl)c(-n3ncnc3C(F)F)c2)C1=O [Compound 362]	36.4 nM
CC(C)(C)C[C@]1(c2ccc(-c3cnn(C(C)(C)C)n3)cc2)NC(=N)N([C@H](COC(=O)NC2(C(F)(F)F)CC2)c2ccc(Cl)c(-n3ncnc3C(F)F)c2)C1=O [Compound 371]	26.7 nM
CC(C)(C)C[C@]1(c2ccc(-c3cnn(C(F)F)c3)cc2)NC(=N)N([C@H](COC(=O)NC2(C(F)(F)F)CC2)c2ccc(-n3ncnc3C(F)F)c(F)c2)C1=O [Compound 379]	134 nM
CC(C)(C)C[C@]1(c2ccc(-c3cnn(C(F)F)c3)cc2)NC(=N)N([C@H](COC(=O)NC2(C(F)(F)F)CC2)c2ccc(F)c(-n3ncnc3C(F)F)c2)C1=O [Compound 380]	29.2 nM

same assay, conditions: MT-4 cells; read-out: MT4 EC50

SMILES	EC50
[H]/N=C1\N[C@](CC(C)(C)C)(c2ccc(-c3cnn(C(F)F)c3)cc2F)C(=O)N1[C@H](COC(=O)NC1CC1)c1ccc(Cl)c(-c2ncn[nH]2)c1 [Compound 11]	35.5 nM
CC(C)(C)C[C@]1(c2ccc(-c3cnccn3)cc2)NC(=N)N([C@H](COC(=O)NC2(C(F)(F)F)CC2)c2ccc(Cl)c(-c3ncn[nH]3)c2)C1=O [Compound 26]	102 nM
CC(C)(C)C[C@]1(c2ccc(-c3cnn(C(F)F)c3)c(F)c2)NC(=N)N([C@H](COC(=O)NCC(C)(F)F)c2ccc(Cl)c(-n3ncnc3C(F)F)c2)C1=O [Compound 299]	13 nM

tested on: not listed separately; assay: Liver microsomal stability, human; type: in vitro ADME; conditions: liver microsomes, read-out: Half-lives
Method: Test compounds and one control compound (verapamil) were tested in 3 different species in duplicate sets.
Test compound concentration: 1 uM; Protein concentration: 0.5 mg/mL (for dog, rat, and human liver microsomes); Cofactor: NADPH-Regenerating system (NRS) solution; Time-points: 2, 12, 25, 45, and 65 minutes.
Reaction Composition (in Each Incubation Well) Contains:
At an incubation temperature of 37° C., the reaction was started with addition of NADPH Regeneration System, at each time point, 25 uL of the reaction mixture was removed and added to a plate with 225 uL quenching solution (50% MeOH, 25% ACN, 25% H2O, and 200 nM labetalol as internal standard). After plates were vortexed, they were centrifuged for 30 minutes to remove proteins. About 100 μL supernatant was removed to a new plate and diluted with 150 μL water. About 20 μL of the mixture was injected into LC/MS/MS system to monitor the compound's response. In vitro measured t½ was used to calculate Clint values.

SMILES	half-life at 1 uM
CC(C)(C)C[C@]1(c2ccc(-c3cnn(C(F)F)c3)cc2)NC(=N)N([C@H](COC(=O)N[C@@H]2C[C@H]2C(F)(F)F)c2ccc(Cl)c(-n3ncnc3C(F)F)c2)C1=O (single isomer, unassigned) [Compound 331]	≥ 6.58 h
CC(C)(C)C[C@]1(c2ccc(-c3cnn(C(F)F)c3)cc2)NC(=N)N([C@H](COC(=O)NC2CC2)c2ccc(Cl)c(-c3nccc(=O)[nH]3)c2)C1=O [Compound 17]	≥ 6.58 h
CC(C)(C#N)C[C@]1(c2ccc(-c3cnn(C(F)F)c3)cc2)NC(=N)N([C@H](COC(=O)NC2(C(F)(F)F)CC2)c2ccc(Cl)c(-n3ncnc3C(F)F)c2)C1=O [Compound 336]	≥ 6.58 h
CC(C)(C)C[C@]1(c2ccc(-c3cnn(C(F)F)c3)cc2)NC(=N)N([C@H](COC(=O)NC2(C(F)(F)F)CC2)c2ccc(F)c(-n3ncnc3C(F)F)c2)C1=O [Compound 380]	≥ 6.58 h
COC(=O)N[C@H](C(=O)N[C@@H](Cc1ccccc1)[C@@H](O)CN(Cc1ccc(-c2ccccn2)cc1)NC(=O)[C@@H](NC(=O)OC)C(C)(C)C)C(C)(C)C [atazanavir, methyl N-[(2S)-1-[2-[(2S,3S)-2-hydroxy-3-[[(2S)-2-(methoxycarbonylamino)-3,3-dimethylbutanoyl]amino]-4-phenylbutyl]-2-[(4-pyridin-2-ylphenyl)methyl]hydrazinyl]-3,3-dimethyl-1-oxobutan-2-yl]carbamate, reference compound]	0.433 to 1.78 h
